Columns and labels:
Type in all cases: in vivo
[1] = tested on: dogs suffering from cognitive dysfunction syndrome; assay: Example 10: cognitive decline, Cognitive Dysfunction Screening Checklist (CBD Complex); conditions: for Average Initial Score: day 0 (before treatment); for Average Final Score: day 60, BID
From the text: This example examines the ability of embodiments of the invention versus Anipryl® to treat cognitive decline.
The patient group is twenty dogs suffering from cognitive dysfunction syndrome, as determined by the Cognitive Dysfunction Screening Checklist. See G. Landsberg et al., 2003 HANDBOOK OF BEHAVIOR PROBLEMS OF THE DOG AND CAT (Elsevier Science Limited) (2003). The twenty dogs are broken into five groups of four dogs. The first group receives Anipryl® as the sole active agent; the second group receives a composition comprising HMW HA as the sole active agent; the third group receives a composition comprising CBD as the sole active agent; the fourth group receives a composition comprising HMW HA and CBD Complex as the active agents; and the fifth group receives a composition comprising HMW HA, CBD Complex, nicotinamide adenine dinucleotide (“NAD”), and phosphatidylserine as the active agents.
Each composition is administered for a period of sixty (60) days, twice per day (“BID”). The owner completes the Checklist on days 0 (“Initial Score”), 15, 30, 45, and 60 (“Final Score”) of treatment.
Each group is evaluated and Checklist scores averaged. The following scores are observed and the results depicted in FIG. 10: […]

[2] = tested on: dogs suffering behavior aberrations and/or anxiety; assay: Example 13: behavior aberrations and anxiety, C-BARQ (canine, CBD Complex); conditions: C-BARQ day 0 vs 60, SID, 0 (no improvement) to 3 (marked improvement)
From the text: This example examines the ability of embodiments of the invention versus Clomicalm® to reduce behavior aberrations and anxiety.
The first patient group is twenty dogs suffering behavior aberrations and/or anxiety, as determined by the canine behavioral assessment and research questionnaire (“C-BARQ”). […] The second patient group is twenty cats suffering behavior aberrations and/or anxiety, as determined by the feline behavioral assessment and research questionnaire (“Fe-BARQ”).
Each group is broken into five groups of four animals. The first group receives Clomicalm® as the sole active agent; the second group receives a composition comprising HMW HA as the sole active agent; the third group receives a composition comprising CBD as the sole active agent; the fourth group receives a composition comprising HMW HA and CBD Complex as the active agents; and the fifth group receives a composition comprising HMW HA, CBD Complex, valerian root, and scutillaria as the active agents.
Each composition is administered for a period of sixty (60) days, once a day (“SID”). Owners complete the species-appropriate C-BARQ or Fe-BARQ on days 0 and 60 of treatment. The results from the overall questionnaire are averaged and characterized as no improvement (score of 0), mild improvement (score of 1), moderate improvement (score of 2), or marked improvement (score of 3).

[3] = tested on: dogs with a history of severe, chronic skin issues, atopy, pruritis, yeast overgrowth, and/or infection; assay: Example 8: skin conditions (itch score) and side effects in dogs; design: Average Side Effect Score: scale not given here; conditions: for Average Side Effect Score: dogs with skin conditions, 60 days BID; for Initial Itch Score / Final Itch Score: itch scale 0 (no itching) to 10 (extremely severe); for Initial Itch Score: day 0; for Final Itch Score: day 60, BID
From the text: This example examines the ability of embodiments of the invention versus prednisone to treat skin conditions.
The patient group is twenty-four dogs with a history of severe, chronic skin issues, atopy, pruritis, yeast overgrowth, and/or infection, as diagnosed by their referring veterinarian. The patient group is broken into six groups of four animals. The first group receives prednisone as the sole active agent; the second group receives a composition comprising prednisone and HMW HA as the active agents; the third group receives a composition comprising HMW HA as the sole active agent; the fourth group receives a composition comprising CBD as the sole active agent; the fifth group receives a composition comprising HMW HA and CBD as the active agents; and the sixth group receives a composition comprising HMW HA, CBD, quercetin, and nettles as the active agents.
Each composition is administered for a period of sixty (60) days, BID. Each dog is evaluated on days 0 (“Initial Score”), 20, 40, and 60 (“Final Score”) of treatment. The results are averaged and characterized on a scale of 0 (no itching—normal dog), 2 (very mild itching—only occasional episodes), 4 (mild itching), 6 (moderate itching—regular episodes), 8 (severe itching—prolonged episodes), to 10 (extremely severe itching—almost continuous).
The following scores are observed and the results depicted in FIG. 8: […]

[4] = tested on: cats suffering from GI-specific inflammation; assay: Example 11: GI-specific inflammation, owner-rated symptom reduction; conditions: species not given, symptom reduction score 0 to 4; for Final Score: after 28 days BID
From the text: (§1) This example examines the ability of embodiments of the invention versus Pepcid® to treat unwanted GI-specific inflammation characterized by gastritis, reflux, vomiting, diarrhea, and inappetence.
(§2) The first patient group is twenty dogs suffering from GI-specific inflammation. The second patient group is twenty cats suffering from GI-specific inflammation. Each patient group is broken into five groups of four animals. The first groups receive Pepcid® as the sole active agent; the second groups receive a composition comprising HMW HA as the sole active agent; the third groups receive a composition comprising CBD as the sole active agent; the fourth groups receive a composition comprising HMW HA and CBD Complex as the active agents; and the fifth groups receive a composition comprising HMW HA, CBD Complex, and glutathione as the active agents.
(§3) Each composition is administered for a period of twenty-eight (28) days, BID. The owner observes potential reduction of symptoms at the end of treatment and rates the reduction as no reduction (score of 0), mild reduction (score of 1), moderate reduction (score of 2), significant reduction (score of 3), or resolution of symptoms (score of 4).

[5] = tested on: dogs suffering from GI-specific inflammation; assay: Example 3: GI-specific inflammation, owner-rated symptom reduction (canine); conditions: symptom reduction score 0 (no reduction) to 4 (resolution of symptoms); for Final Score: after 28 days BID
From the text: as §1
as §2, with “CBD” for “CBD Complex”, “CBD,” for “CBD Complex,”
as §3
The following canine scores are observed and the results depicted in FIG. 3a: […]

Row | Compound | Average Initial Score [1] | Average Final Score [1] | Improvement Score [2] | Average Side Effect Score [3] | Initial Itch Score [3] | Final Itch Score [3] | Final Score [4] | Initial Score [4] | Final Score [5] | Initial Score [5]
1 | C=C(C)[C@@H]1CCC(C)=C[C@H]1c1c(O)cc(CCCCC)cc1O [CBD Alone, 2-[(1R,6R)-3-methyl-6-prop-1-en-2-ylcyclohex-2-en-1-yl]-5-pentylbenzene-1,3-diol] | 3 | 1.5 | 2 | .5 | 9 | 5 | 2 | 0 | 2 | 0
2 | hyaluronic acid [HMW HA Alone] | 3 | 2 | 1 | 4 | 9 | 7 | 3 | 0 | 3 | 0

Reference: patent publication US20220054532A1, “VETERINARY COMPOSITIONS AND METHODS OF USE THEREFOR” (priority 2019, published 2022)
